Measured values reported in ChEMBL document CHEMBL5352468, “Rational design, synthesis, and pharmacological evaluation of a cohort of novel beta-adrenergic receptors ligands enables an assessment of structure-activity relationships” (Eur J Med Chem, 2023).

Columns and labels:
Type in all cases: functional, cell-based
[1] = target: T1, Beta-2 adrenergic receptor (Homo sapiens, UniProt P07550); assay: Agonist activity at human beta2-adrenergic receptor expressed in CHO-K1 cells co-expressing CRE-SPAP reporter gene assessed as CRE-SPAP production measured after 5 hrs incubation
T1 sequence (P07550 whole entry): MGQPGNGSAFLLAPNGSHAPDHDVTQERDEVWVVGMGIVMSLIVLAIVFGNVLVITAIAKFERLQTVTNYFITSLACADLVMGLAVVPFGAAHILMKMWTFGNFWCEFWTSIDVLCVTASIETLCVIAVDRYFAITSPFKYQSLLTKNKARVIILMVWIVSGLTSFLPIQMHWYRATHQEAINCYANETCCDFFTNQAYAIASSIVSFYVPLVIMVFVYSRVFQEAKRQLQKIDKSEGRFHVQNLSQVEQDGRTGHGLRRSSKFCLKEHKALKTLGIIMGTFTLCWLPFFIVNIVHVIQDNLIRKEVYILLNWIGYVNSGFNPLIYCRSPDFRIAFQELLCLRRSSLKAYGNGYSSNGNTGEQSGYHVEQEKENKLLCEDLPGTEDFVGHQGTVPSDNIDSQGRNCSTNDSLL

[2] = target: T2, Beta-3 adrenergic receptor (Homo sapiens, UniProt P13945); assay: Agonist activity at human beta3-adrenergic receptor expressed in CHO-K1 cells co-expressing CRE-SPAP reporter gene assessed as CRE-SPAP production measured after 5 hrs incubation
T2 sequence (P13945 whole entry): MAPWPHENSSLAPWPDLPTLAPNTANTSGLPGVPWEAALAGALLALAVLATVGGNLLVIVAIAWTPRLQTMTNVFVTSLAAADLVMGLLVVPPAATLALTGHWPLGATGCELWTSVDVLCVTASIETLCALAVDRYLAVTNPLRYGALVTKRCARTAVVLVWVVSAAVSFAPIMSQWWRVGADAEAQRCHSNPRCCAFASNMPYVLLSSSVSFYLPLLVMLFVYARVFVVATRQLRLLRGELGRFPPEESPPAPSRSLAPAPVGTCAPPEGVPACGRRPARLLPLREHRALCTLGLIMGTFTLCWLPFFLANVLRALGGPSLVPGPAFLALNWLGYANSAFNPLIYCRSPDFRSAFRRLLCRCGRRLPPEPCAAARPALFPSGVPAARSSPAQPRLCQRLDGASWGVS

[3] = target: T2, Beta-3 adrenergic receptor; assay: Antagonist activity at human beta3-adrenergic receptor expressed in CHO-K1 cells co-expressing CRE-SPAP reporter gene assessed as inhibition of fenoterol-induced CRE-SPAP production by measuring rightward shift of the fenoterol concentration response curve measured after 5 hrs incubation
[4] = target: T1, Beta-2 adrenergic receptor; assay: Antagonist activity at human beta2-adrenergic receptor expressed in CHO-K1 cells co-expressing CRE-SPAP reporter gene assessed as inhibition of fenoterol-induced CRE-SPAP production by measuring rightward shift of the fenoterol concentration response curve measured after 5 hrs incubation
[5] = target: T3, Beta-1 adrenergic receptor (Homo sapiens, UniProt P08588); assay: Antagonist activity at human beta1-adrenergic receptor expressed in CHO-K1 cells co-expressing CRE-SPAP reporter gene assessed as inhibition of fenoterol-induced CRE-SPAP production by measuring rightward shift of the fenoterol concentration response curve measured after 5 hrs incubation
T3 sequence (P08588 whole entry): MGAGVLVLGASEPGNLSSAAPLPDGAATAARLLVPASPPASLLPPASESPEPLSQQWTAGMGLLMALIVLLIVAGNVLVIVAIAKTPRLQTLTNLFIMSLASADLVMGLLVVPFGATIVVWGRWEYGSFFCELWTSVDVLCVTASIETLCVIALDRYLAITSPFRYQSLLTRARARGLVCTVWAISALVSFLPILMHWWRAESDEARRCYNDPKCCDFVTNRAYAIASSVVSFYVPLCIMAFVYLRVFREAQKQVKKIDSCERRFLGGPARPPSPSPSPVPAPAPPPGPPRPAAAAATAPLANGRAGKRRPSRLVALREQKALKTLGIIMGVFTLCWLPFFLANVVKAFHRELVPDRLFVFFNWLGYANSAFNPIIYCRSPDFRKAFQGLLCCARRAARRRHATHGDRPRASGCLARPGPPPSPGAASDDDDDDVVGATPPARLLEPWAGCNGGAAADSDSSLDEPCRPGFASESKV

[6] = target: T3, Beta-1 adrenergic receptor; assay: Agonist activity at human beta1-adrenergic receptor expressed in CHO-K1 cells co-expressing CRE-SPAP reporter gene assessed as CRE-SPAP production measured after 5 hrs incubation

Row | SMILES | Kd ([4]; read-out: pKd (converted)) [nM] | Kd ([5]; read-out: pKd (converted)) [nM] | Kd ([3]; read-out: Kd) [nM] | also measured
1 | CCc1ccccc1OC[C@@H](O)CN[C@H]1CCCc2ccccc21 | 3.8 | – | – | EC50 ([1]; read-out: pEC50 (converted)): 8.71 nM; EC50 ([2]; read-out: pEC50 (converted)): 191 nM; Kd ([3]; read-out: pKd (converted)): 69.2 nM
2 | CC(=O)NCc1cccc(OC[C@@H](O)CNCCc2ccc(NS(=O)(=O)c3ccccc3)cc2)c1 | 74.1 | 339 | – | EC50 ([1]; read-out: EC50): 10000 nM; EC50 ([2]; read-out: pEC50 (converted)): 4.47 nM; Kd ([3]; read-out: pKd (converted)): 6.76 nM; EC50 [6]: 380 nM
3 | COC(=O)[C@H](N)Cc1ccc(OC[C@@H](O)CNCC2COc3ccccc3O2)cc1 (stereo partly drawn) | – | – | > 10000 | –
4 | CCc1ccccc1OC[C@@H](O)CNCCC(c1ccccc1)c1ccccc1 | – | 135 | – | EC50 [6]: 309 nM
5 | CC1(C)CC(=O)c2ccc(OC[C@H](O)CNCCCN3C(=O)c4ccccc4C3=O)cc2O1 | – | – | – | Kd ([5]; read-out: Kd): > 10000 nM
6 | CC1(C)CC(=O)c2ccc(OC[C@@H](O)CNCCCN3C(=O)c4ccccc4C3=O)cc2O1 | – | – | – | Kd ([5]; read-out: Kd): > 10000 nM
7 | O[C@@H](CNCC1COc2ccccc2O1)COc1ccnc2ccccc12 (stereo partly drawn) | – | 6030 | – | –
8 | O[C@@H](CNCC1COc2ccccc2O1)COc1ccc2c(c1)OCO2 (stereo partly drawn) | 1550 | 1580 | – | EC50 [6]: 316 nM
9 | COc1ccc(S(=O)(=O)NCCCCNC[C@H](O)COc2ccc3c(c2)OC(C)(C)CC3=O)cc1 | – | – | > 10000 | Kd ([5]; read-out: Kd): > 10000 nM
10 | CS(=O)(=O)c1ccc(CCNC[C@H](O)COc2ccc3ccc(=O)oc3c2)cc1 | – | – | > 10000 | Kd ([4]; read-out: Kd): > 10000 nM
11 | O=c1ccc2ccc(OC[C@@H](O)CNCC3COc4ccccc4O3)cc2o1 (stereo partly drawn) | 6610 | – | – | –
12 | O=C1COc2cc(OC[C@@H](O)CNCC3COc4ccccc4O3)ccc21 (stereo partly drawn) | 3630 | – | – | –
13 | CC1(C)CC(=O)c2ccc(OC[C@@H](O)CNCCCc3ccccc3)cc2O1 | – | – | > 10000 | –
14 | O[C@@H](CNCC1COc2ccccc2O1)COc1cccc2cnccc12 (stereo partly drawn) | 107 | 102 | – | EC50 ([1]; read-out: EC50): 10000 nM; EC50 ([2]; read-out: EC50): 10000 nM; Kd ([3]; read-out: pKd (converted)): 1350 nM; EC50 [6]: 74.1 nM
15 | O=c1ccc2ccc(OC[C@@H](O)CNCCc3ccc4c(c3)OCO4)cc2o1 | – | 5620 | > 10000 | –
16 | CC1(C)CC(=O)c2ccc(OC[C@H](O)CNCCCc3ccccc3)cc2O1 | – | – | > 10000 | –
17 | COc1ccc(S(=O)(=O)NCCCCCCNC[C@H](O)COc2ccc3ccc(=O)oc3c2)cc1 | – | – | > 10000 | –
18 | CC(=O)Nc1ccc(CCNC[C@H](O)COc2ccc3ccc(=O)oc3c2)cc1 | – | – | > 10000 | Kd ([4]; read-out: Kd): > 10000 nM
